{"source": "patent US12611394B2", "about": "“Use of ginkgolide a in the treatment of autism” (CENTER FOR EXCELLENCE IN MOLECULAR CELL SCIENCE, CHINESE …, priority 2019, dated 2026)", "type_in_all_cases": "in vivo, mouse", "key": {"[1]": {"tested_on": "heterozygous mutant mice carrying NR2F1 gene point mutation", "experiment": "Three-box experiment (sociability and social novelty test) after administration of ginkgolide A", "settings": "mutant (+/m) mice, gavage 2 mg/kg once a day, 7-8 weeks after birth, tested at 8 weeks; FIG. 11", "description": "a. Experimenter A entered the behavior room one hour before the experiment, took out a cage (four) of the experimental mice placed in the next room and placed them in the behavior room 1 hour. Meanwhile, the two mice needed in the experiment (note that the mice used here and the experimental mice cannot be in the same nest, and the sex should be the same) were placed in the behavior room 1 hour. Turn on the light to adapt it to the environment; b. Experimenter A started to clean the three boxes of equipment used in the experiment about half an hour before the experiment, sprayed the 30% alcohol on all parts of the three boxes, wiped gently with a white cloth, and then wiped dry with a new clean white cloth. Then two cages and two objects were washed. And the cloth used to block personnel and the experimental area was put up. c. At the same time, experimenter B began to debug the computer operating software: open the three-box experimental program and confirm whether the positions of the three boxes coincide with the position divided by the software. If not, please assist experimenter A in adjusting. […] After everything was ready, in the first round of the experiment, experimenter A put identical objects in areas 2 and 3, such as bottle caps. […] 5 min later, the experiment was ready to start. […] The experiment lasted 10 min, and the software recorded the time and distance of mice in each area. […]"}, "[2]": {"tested_on": "heterozygous mutant mice carrying NR2F1 gene point mutation", "experiment": "Self-grooming experiment after administration of ginkgolide A", "settings": "mutant (+/m) mice, gavage 2 mg/kg once a day, 7-8 weeks after birth, tested at 8 weeks; FIG. 12", "description": "The experimental mice were placed in a feeding cage with the bottom covered with feed and the height was no more than 1 cm. The time of grooming behavior in mice in 10 minutes was recorded. The grooming position includes face, head, neck, ears, etc. Subsequent self-grooming experiments were conducted to detect repetitive stereotyped behaviors. […] Ginkgolide A was administered to heterozygous mutant mice. The detailed administration scheme was as follows: the administration method was gavage treatment, the concentration of ginkgolide A was 2 mg/kg, the administration time is 7-8 weeks after the birth of mutant mice, and the administration frequency was once a day."}, "[3]": {"tested_on": "heterozygous mutant mice carrying NR2F1 gene point mutation", "experiment": "Elevated-plus maze experiment after administration of ginkgolide A", "settings": "mutant (+/m) mice, gavage 2 mg/kg once a day, 7-8 weeks after birth, tested at 8 weeks; FIG. 13", "description": "The related anxiety state of mice were investigated by using the characteristics that mice like to explore in the new environment and the contradictory behavior of fear of heights with open arms at heights. In order to increase the total number of mice entering the arm and avoid hiding in the closed arm, the animals were usually placed in an open environment for 5 minutes and then placed in the maze. Similarly, the mice were placed in a room with an elevated experimental device to adapt to the environment one hour before the start of the experiment, with the red light turned on, and the room temperature was kept at 25° C. At the beginning of the experiment, hold the mouse into the palm of the hand, place it in the middle of the cross facing the closed arm, and quickly leave this room. Then another person started recording and tracking the activity movement of the mouse in another room. In the process, the times of the experimental mouse entering the open arm and the closed arm was counted, and the time of staying in the open arm and the closed arm was counted respectively; after the whole process was recorded for 5 minutes for the experiment, the mice were gently stroked, and put back into the cage. The elevated-plus table was cleaned with 70% alcohol for the experiment of the next mouse. The elevated-plus experiment is mainly used to detect the anxiety behavior of mice. […]"}}}
{"smiles": "C[C@@H]1C(=O)O[C@H]2C[C@@]34[C@H]5C[C@@H](C(C)(C)C)[C@]36[C@@H](OC(=O)[C@@H]6O)O[C@@]4(C(=O)O5)[C@]21O", "note": "[ginkgolide A]", "values": [{"measurement": "time of interaction with similar mice (sociability)", "setting": "[1]", "value": "significantly increased"}, {"measurement": "time of interaction with unfamiliar mice (social novelty)", "setting": "[1]", "value": "significantly increased"}, {"measurement": "self-grooming time", "setting": "[2]", "value": "significantly reduced"}, {"measurement": "time to explore the open arm", "setting": "[3]", "value": "increased significantly"}]}
